Values of other authors as cited in patent US9637723B2, “Generation of functional and durable endothelial cells from human amniotic fluid-derived cells” (Cornell University, priority 2012, dated 2017).
Read-outs that look alike come from different tables or passages of the source.

Target: T1, ALK5 (Homo sapiens, UniProt P36897)
T1 sequence (P36897 34-503): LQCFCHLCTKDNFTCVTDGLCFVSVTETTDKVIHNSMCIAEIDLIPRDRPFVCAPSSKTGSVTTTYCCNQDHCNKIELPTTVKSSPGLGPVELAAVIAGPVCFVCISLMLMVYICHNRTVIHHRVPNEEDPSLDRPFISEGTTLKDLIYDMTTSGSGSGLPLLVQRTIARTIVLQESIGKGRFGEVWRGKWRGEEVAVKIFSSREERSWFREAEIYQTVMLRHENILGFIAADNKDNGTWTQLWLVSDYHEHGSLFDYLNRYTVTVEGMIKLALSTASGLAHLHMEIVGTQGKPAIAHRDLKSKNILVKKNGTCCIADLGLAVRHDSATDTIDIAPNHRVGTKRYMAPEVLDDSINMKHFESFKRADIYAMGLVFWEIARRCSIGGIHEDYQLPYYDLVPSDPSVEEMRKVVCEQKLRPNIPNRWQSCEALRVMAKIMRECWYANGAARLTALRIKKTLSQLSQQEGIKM

[1] = as listed for compounds available through Tocris Bioscience

## Cc1cccc(-c2nn(C(=S)Nc3ccccc3)cc2-c2ccnc3ccccc23)n1 [A 83-01, 3-(6-Methyl-2-pyridinyl)-N-phenyl-4-(4-quinolinyl)-1H-pyrazole-1-carbothioamide]
[1]
  Function: (Selective inhibitor of ALK5, ALK4 and ALK7)

## c1ccc(-c2n[nH]cc2-c2ccnc3ccccc23)nc1 [LY 364947, 4-[3-(2-Pyridinyl)-1H-pyrazol-4-yl]-quinoline]
  Function: (Selective inhibitor of ALK5)

## Cc1cccc(-c2n[nH]cc2-c2ccc3ncccc3n2)n1 [SJN 2511, 2-(3-(6-Methylpyridine-2-yl)-1H-pyrazol-4-yl)-1,5-naphthyridine]
[1]
  Function: (Selective inhibitor of ALK5)
